In US9163018B2, “Method of treatment of age-related macular degeneration (AMD)” (Prana Biotechnology Limited, priority 2006, dated 2015):

Columns and labels:
Aβ 1-42 = target: T1, Aβ 1-42 (Homo sapiens, UniProt P05067); assay: Fluorometric H2O2 assay (inhibition of Abeta H2O2 production); format: biochemical; details: concentration required to inhibit 50% of Abeta H2O2 production; read-out: H2O2 IC50
T1 construct: The reaction solutions contained Aβ 1-42 at concentrations
Description: Assay 1. Fluorometric H2O2 Assay
A fluorometric assay was used to test the ability of a test compound to inhibit hydrogen peroxide generation by Aβ in the presence of copper based on dichlorofluoroscein diacetate (DCF; Molecular Probes, Eugene Oreg.). The DCF solution (5 mM) in 100% dimethyl sulphoxide (previously purged with argon for 2 hr at 20° C.) was deacetylated in the presence of 0.25M NaOH for 30 min and neutralized at pH 7.4 to a final concentration of 1 mM. Horseradish peroxidase (HRP) stock solution was prepared to 1 μM at pH 7.4. The reactions were carried out in PBS, pH 7.4 in a 96 well plate (total volume=250 μl/well). […] The reaction mixture was incubated at 37 C for 60 min. […] H2O2 concentration may be established by comparing fluorescence with the H2O2 standards, Inhibition of Aβ H2O2 production was assayed by including a given concentration of test compound(s) in the test wells.

[1] = test system: primary cortical neuronal cultured cells; assay: Test compound cytotoxicity, MTS assay, primary cortical neuronal cultures; format: cell-based, mouse; details: for Cytotox (% viable) Neuronal cells at 1 μM: 1 μM test compound; for Cytotox (% viable) Neuronal cells at 10 μM: 10 μM test compound
Description: Assay 2. Neurotoxicity Assays
Primary Cortical Neuronal Cultures
Media was then replaced with Neurobasal media (Invitrogen Life Technologies) and B27 supplements (Invitrogen Life Technologies). Cultures were maintained at 37° C. in 5% CO2. Prior to experimentation, the culture medium was replaced with Neurobasal media and B27 minus antioxidants (Invitrogen Life Technologies).
Assay 3. MTS Assay for Cell Viability
Cell viability is determined using the MTS assay. Culture medium is replaced with fresh neurobasal medium plus B27 supplements minus antioxidants. 1/10th volume MTS solution (Cell Titre 96 Aqueous One, Promega Corporation) and incubated at 37° C., 2 hrs. 200 microliter aliquots are measured with a spectrophotometer at 560 nm.
Assay 4. Assay for Test Compound Cytoxicity
Neuronal cortical cells were cultured for five days as per Assay 2 in NB media and B27 supplement.
On day six the test compounds were added to the neuronal cell cultures in NB media and B27 supplement minus antioxidants.
Test compounds were dissolved in 100% DMSO to a concentration of 2.5 mM (10 mM if excess compound was weighed out per vial—then diluted to 2.5 mM).
Test compounds were not added directly to cells, instead they were added to a 48 well ‘Drug Plate’ as comprised below:
The Drug Plate was incubated at 37° C. for 15 mins. 200 μl of each well was added in triplicate to the corresponding cell plate. The cell plate was incubated at 37 C, for 4 days.
On completion of the assay, 1/10 volume MTS was added per well of plate (ie 25 μl/250 μl). The plates were incubated at 37 C for 2 hrs, and then absorbance was read at 560 nm.

[2] = test system: Abeta in extract of post-mortem human AD brain tissue; assay: BAS: human brain amyloid solubilization assay; format: biochemical; details: for BAS max effect: max effect across the concentration range, referenced to baseline PBS; for BAS concentration or concentration range at which an effect is observed: units printed in each cell
Description: Assay 5. Human Brain Amyloid Solubilization Assay
This assay was performed in order to assess the ability of a test compound to mobilise Aβ, as an example form of amyloid, from the insoluble to the soluble phase of an extract of tissue from post mortem human AD brain.
Up to 0.5 g of plaque-bearing cortex without meninges was homogenized using a DIAX 900 homogenizer (Hendolph and Co, Kelheim, Germany) or other suitable device for three 30-second periods at full speed in 2 ml of ice-cold phosphate-buffered saline, pH 7.4. To obtain the phosphate-buffered saline-extractable fraction, the homogenate was centrifuged at 100,000×g for 30 min and the supernatant removed. Alternatively, the tissue was freeze dried then pulverized to form a powder which was then weighed out into aliquots for extraction as above. Supernatant, either freeze-dried and resuspended or in unconcentrated form, was dissolved in 200 μl of Tris-Tricine sodium dodecyl sulfate (SDS) sample buffer pH 8.3 containing 8% SDS, 10% 2-mercaptoethanol. Aliquots (10 μl) were then boiled for 10 minutes before SDS-polyacrylamide gel electrophoresis. The insoluble fraction of the cortical samples was obtained by resuspending the initial pelleted sample in 1 ml of phosphate-buffered saline, A 50-μl aliquot of this suspension was then boiled in […] of sample buffer as above.
Tris-Tricine polyacrylamide gel electrophoresis was performed by loading appropriately diluted samples on to 10% to 20% gradient gels (Novex, San Diego, Calif.) followed by transfer on to 0.2-μm nitrocellulose membrane (Bio-Rad, Hercules, Calif.). Aβ was detected by using monoclonal antibody W02, which detects residues 5 through 8, […] (or another suitable antibody) in conjunction with horseradish peroxidase-conjugated rabbit anti-mouse IgG (Dako, Denmark), and visualized by using enhanced chemiluminescence (eg ECL; Amersham Life Science, Buckinghamshire, UK). Each gel included three lanes containing 0.5, 1, and 2 ng of synthetic Aβ40 (Keck Laboratory, Yale University, New Haven, Conn.) as reference standards.
Blot films were scanned by using a suitable imaging system such as the UVP gel documentation system, and densitometry performed using suitable software, eg UVP Labworks. The dynamic range of the film/scanner was determined by using a step tablet (No. 911ST600, Kodak, Rochester N.Y.), a calibrated film exposed by the manufacturer to provided steps of known increasing intensity. The quantifiable range of signal intensity for densitometric analysis of the mono- and dimeric Aβ bands was based on the comparison with a curve obtained by scanning and densitometry of the step tablet.
All samples were analyzed at least twice, and gel loadings and dilutions were adjusted to fit within the quantifiable region of the standard curve. The proportion of ‘soluble’ to ‘insoluble’ Aβ may be used to determine the efficiency of extraction of a test compound compared with the efficiency of a known compound. The insoluble Aβ being comprised of the pelletable fraction derived from the insoluble amyloid plaque from the above cortical samples and the soluble fraction comprising monomeric and/or oligomeric soluble Aβ.

T1 sequence (P05067 672-713 limits assumed): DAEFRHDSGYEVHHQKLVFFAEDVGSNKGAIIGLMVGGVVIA

Oc1ccccc1-c1cc(Cl)c2cccnc2c1O [PB 947]
IC50 (Aβ 1-42): 1140 nM | Cytotox (% viable) Neuronal cells at 1 μM [1]: 100% | Cytotox (% viable) Neuronal cells at 10 μM [1]: 70% | BAS max effect [2]: 244%

O=C(CNC(=O)c1cc(O)c2cccc(O)c2n1)NCCc1c[nH]cn1 [PB 987]
IC50 (Aβ 1-42): 1800 nM | Cytotox (% viable) Neuronal cells at 1 μM [1]: 98% | Cytotox (% viable) Neuronal cells at 10 μM [1]: 89% | BAS max effect [2]: 393%

Oc1c(I)cc(-c2ccccc2C(F)(F)F)c2cccnc12 [PB 860]
IC50 (Aβ 1-42): 790 nM | Cytotox (% viable) Neuronal cells at 1 μM [1]: 91% | Cytotox (% viable) Neuronal cells at 10 μM [1]: 90% | BAS max effect [2]: 160%

Oc1c(-c2ccccc2C(F)(F)F)cc(Cl)c2cccnc12 [PB 864]
IC50 (Aβ 1-42): 770 nM | Cytotox (% viable) Neuronal cells at 1 μM [1]: 96% | Cytotox (% viable) Neuronal cells at 10 μM [1]: 93% | BAS max effect [2]: 208%

Cc1ccccc1-c1cc(-c2ccccc2C)c2cccnc2c1O [PB 852]
IC50 (Aβ 1-42): 2100 nM | Cytotox (% viable) Neuronal cells at 1 μM [1]: 93% | Cytotox (% viable) Neuronal cells at 10 μM [1]: 34% | BAS max effect [2]: 220%

COc1ccccc1-c1cc(-c2ccccc2OC)c2cccnc2c1O [PB 862]
IC50 (Aβ 1-42): < 770 nM | Cytotox (% viable) Neuronal cells at 1 μM [1]: 100% | Cytotox (% viable) Neuronal cells at 10 μM [1]: 52% | BAS max effect [2]: 256%

Oc1c(Br)cc(-c2ccccc2)c2cccnc12 [PB 806]
IC50 (Aβ 1-42): < 900 nM | Cytotox (% viable) Neuronal cells at 1 μM [1]: 100% | Cytotox (% viable) Neuronal cells at 10 μM [1]: 97% | BAS max effect [2]: 311%

NCCNC(=O)c1ccc2cccc(O)c2n1 [PB 957]
IC50 (Aβ 1-42): > 10000 nM | Cytotox (% viable) Neuronal cells at 1 μM [1]: 106% | Cytotox (% viable) Neuronal cells at 10 μM [1]: 96% | BAS max effect [2]: 190% | BAS concentration or concentration range at which an effect is observed [2]: 1 μM, 100 μM

FC(F)(F)CSc1cccc2cccnc12 [PB 913]
IC50 (Aβ 1-42): 990 nM | Cytotox (% viable) Neuronal cells at 1 μM [1]: 100% | Cytotox (% viable) Neuronal cells at 10 μM [1]: 95% | BAS max effect [2]: 450%

Oc1cccc2ccc(CNCc3ccccn3)nc12 [PB 991]
IC50 (Aβ 1-42): 470 nM | Cytotox (% viable) Neuronal cells at 1 μM [1]: 96% | Cytotox (% viable) Neuronal cells at 10 μM [1]: 67% | BAS max effect [2]: 222%

O=C(NCc1ccccn1)c1ccc2cccc(O)c2n1 [PB 949]
IC50 (Aβ 1-42): 430 nM | Cytotox (% viable) Neuronal cells at 1 μM [1]: 96% | Cytotox (% viable) Neuronal cells at 10 μM [1]: 85% | BAS max effect [2]: 201%

CN(c1ccc2cccc(O)c2n1)c1ccc2cccc(O)c2n1 [PB 56]
IC50 (Aβ 1-42): 250 nM | Cytotox (% viable) Neuronal cells at 1 μM [1]: 80% | Cytotox (% viable) Neuronal cells at 10 μM [1]: 25% | BAS max effect [2]: 311%

O=C(Nc1nccs1)c1ccc2cccc(O)c2n1 [PB 952]
IC50 (Aβ 1-42): 270 nM | Cytotox (% viable) Neuronal cells at 1 μM [1]: Neuronal cells: 100, 100% | Cytotox (% viable) Neuronal cells at 10 μM [1]: Neuronal cells: 100, 100% | BAS max effect [2]: 268%

O=C(NCCc1cnc[nH]1)c1cc(O)c2cccc(O)c2n1 [PB 954]
IC50 (Aβ 1-42): 120 nM | Cytotox (% viable) Neuronal cells at 1 μM [1]: Neuronal cells: 100, 100% | Cytotox (% viable) Neuronal cells at 10 μM [1]: Neuronal cells: 100, 100% | BAS max effect [2]: 134% | BAS concentration or concentration range at which an effect is observed [2]: 1 µM
